{"source": "patent US20260048066A1", "about": "“TREATMENT OF NEURODEGENERATIVE DISORDERS UTILISING METHYLTHIONINIUM (MT)-CONTAINING COMPOUNDS” (WISTA LABORATORIES LTD, priority 2022, published 2026)", "key": {"[1]": {"system": "participants with severity ranging from mild cognitive impairment (MCI) to moderate AD", "experiment": "LUCIDITY trial: safety and tolerability", "type": "in vivo, human", "method": "All safety assessments are performed during Screening to assess subject eligibility, by an independent qualified medical assessor not involved in efficacy assessments. For the enrolled participants, safety assessments are undertaken at Baseline and at each clinic visit after 4, 13, 26, 39, and 52 weeks during the double-blind treatment period, as well as after 56 (telephone assessment, or on-site in UK), 78, and 104 weeks in the open-label, delayed-start phase; when needed to follow up on a treatment-emergent adverse event (AE); and upon early termination (Table 1). Patients are followed as needed for the resolution or stabilization of any AE, consistent with the investigator's medical judgement."}, "[2]": {"system": "participants with severity ranging from mild cognitive impairment (MCI) to moderate AD", "experiment": "LUCIDITY Phase 3 trial: cognitive (ADAS-cog), functional (ADCS-ADL) and brain atrophy outcomes", "type": "in vivo, human", "description": "The LUCIDITY trial (NCT03446001; EudraCT: 2017-003558-17) is a Phase 3, randomized, double-blind, placebo-controlled, outpatient trial to evaluate the safety, efficacy, and tolerability of hydromethylthionine mesylate monotherapy in participants with severity ranging from mild cognitive impairment (MCI) to moderate AD. The initial 12-month blinded period is followed by a 12-month, open-label extension period to provide comparative, delayed-start data. There are 76 study sites located in Canada, France, Italy, Poland, Spain, United Kingdom and United States. The protocol was approved by an institutional review board or independent ethics committee at each site.\nFollowing screening, eligible participants are randomized at baseline in a 4:1:4 ratio to receive hydromethylthionine mesylate 16 mg/day, hydromethylthionine mesylate 8 mg/day, or placebo. Following completion of the 52-week double-blind treatment period, all participants continue open-label treatment with hydromethylthionine mesylate 16 mg/day for a further 52 weeks. Participants who were randomized to start on HMTM are considered early-starters; patients who begin on placebo and switch to HMTM at week 52 are considered delayed starters. Unlike a traditional delayed start design, in which participants remain blinded to treatment throughout the trial, treatment during weeks 52 to 104 is open-label, although participants and the site study staff remain blinded to prior treatment assignment. Randomization was stratified by severity (three levels: MMSE 16-19, 20-25, or 26-27, with a target ratio of approximately 2:3:1), prior use of symptomatic treatments (AChEls and/or memantine-two levels: prior use or none), and region (two levels: Canada/USA or UK/Europe). To achieve this target, enrolment was monitored and controlled at the site level for high recruiting sites and capped as needed at the study level. Patients who dropped out after randomization were not replaced, but participants were encouraged to continue with study visits off treatment until the scheduled completion of the double-blind treatment period (Visit 7). Only participants who continued in the study and receive hydromethylthionine mesylate treatment up to and including the last visit (Visit 10) without the addition of concomitant AChEls and/or memantine were eligible for continued treatment in a subsequent expanded access program.\nThe active and placebo treatment formulations are tablets that look visually the same. Hydromethylthionine mesylate can cause variable urinary discoloration. Therefore, to maintain blinding, the placebo group receives tablets containing a urinary discolourant (MTC, 4 mg) included among blank tablets containing only excipients on a varying schedule with an average frequency of 2/week.\nDosing frequency of 4 mg MTC tablets was on a varying schedule, such that each patient received a 4 mg tablet among the blanks on average twice per week. All subjects (on all arms) received 4 tablets at two times of day. This allowed for 2×4 mg followed by 2×4 mg to give 16 mg/day dose. 4 tablets were also given daily for placebo (2×placebo then 2×placebo) with 4 mg MTC tablets inserted at a rate of 2 per week i.e. 2 MTC tablets out of 28 per week, with remainder being true placebo.\nParticipants had to be aged less than 90 years and meet the diagnostic criteria for probable AD or MCI-AD and must not have been taking an AChEl or memantine, for at least 60 days at Baseline. They must have been community-dwelling, have a mini mental state exam (MMSE) score of 16-27, and with functional impairment as evidenced by a Clinical Dementia Dating (CDR) stage of 0.5 to 2 at screening. […] All patients must also have at least one study partner, consenting to their own participation; study partners can be changed so long as they have sufficient contact to complete outcome and safety assessments meaningfully and verify compliance with trial treatment. […]"}, "[3]": {"system": "red cells", "conditions": "in vivo, administered intravenously; cited from earlier work"}, "[4]": {"experiment": "Completed hydromethylthionine mesylate Phase 3 studies: estimated treatment effect", "type": "in vivo, human", "method": "Sample size estimations to achieve 90% power (two-sided alpha=0.05) to detect a difference between hydromethylthionine mesylate 16 mg/day and placebo, the primary treatment group comparison in the double-blind treatment period, have been performed for the two co-primary clinical end points, assuming a withdrawal rate of 20% to 25%. The study sample size of approximately 450 is based on the ADCS-ADL23, which has a larger standard deviation (SD) than ADAS-Cog11. Based on an estimated decline in ADCS-ADL23 over 52 weeks in the control arm of 7.7 units with an estimated SD of 8.5 units, the study will have >90% power to detect a reduction in decline of 3.4 units or more. The 3.4-unit effect size is derived from an estimated treatment effect of 5.0±1.6 (mean±standard error) units in the completed hydromethylthionine mesylate studies. Based on an estimated decline of 6.5 units in ADAS-Cog11 over 52 weeks with an estimated SD of 5.9 units, 200 participants per treatment arm provide >90% power to detect a reduction in decline of 2.6 units or more, provided by a conservative value of the estimated treatment effect based on pooled completed Phase 3 studies of −5.2±1.3 (mean±standard error) units in completed hydromethylthionine mesylate studies."}, "[5]": {"experiment": "LUCIDITY trial: plasma HMT/MT levels", "type": "in vivo", "conditions": "human, oral", "method": "At Visits 2, 3, 7 and 10, timed morning blood samples are collected for determination of plasma level of the drug. Samples are collected prior to dosing and then at 1, 2, and 4 hours post dose. A single blood sample for apolipoprotein E (ApoE) is obtained from participants who provide informed consent at any time after eligibility determination and prior to Visit 7. Blood may also be analyzed for other biomarkers for possible future research related to determination of potential biomarker predictors or surrogates for treatment response, to be described in a separate protocol.\nAll patients received 16 mg/day (i.e. 8 mg twice daily) from Visit 7 onwards.\nThe steady-state plasma concentrations (Visit 4. 1 h post-dose) in each dosing arm was investigated further. Patients were grouped based on plasma concentration."}, "[6]": {"experiment": "LUCIDITY trial: plasma HMT/MT levels", "type": "in vivo, human", "conditions": "MTC 4 mg twice weekly; after 12 months of treatment"}, "[7]": {"conditions": "16 mg/day, whole study population, MCI to moderate disease"}}, "note": "Where two headings read alike, the source gives them in different places.", "data": [{"smiles": "CN(C)c1ccc2c(c1)Sc1cc(N(C)C)ccc1N2.CS(=O)(=O)O.CS(=O)(=O)O", "note": "[LMTM, N,N,N′,N′-tetramethyl-10H-phenothiazine-3,7-diaminium bis(hydromethanesulfonate)]", "values": [{"measurement": "treatment-related serious adverse events and amyloid related imaging abnormalities (ARIA)", "setting": "[1]", "result": "no treatment-related serious adverse events or evidence of amyloid related imaging abnormalities (ARIA)"}, {"measurement": "disease progression by change in cognitive function (p=0.0008) and brain atrophy (p<0.0001) against matched ADNI subjects", "setting": "[2]; 16 mg/day", "result": "Statistically significant reductions in disease progression"}, {"measurement": "decline in cognitive and functional measures", "setting": "[2]; 16 mg/day LMTM as monotherapy", "result": "zero or minimal decline"}, {"measurement": "decline on ADAS-cog11 over the first 12 months", "setting": "[2]; [7]", "result": 1.3, "unit": "ADAS-cog11 units"}, {"measurement": "decline on ADCS-ADL23 over the first 12 months", "setting": "[2]; [7]", "result": "−1.0", "unit": "ADCS-ADL23 units"}, {"measurement": "cognitive improvement over baseline on the ADAS-cog13 scale", "setting": "[2]; 105 patients with MCI, 16 mg/day, at 6 months (p=0.0002), 12 months (p=0.0391) and 18 months (p=0.0473)", "result": 2, "unit": "units"}, {"measurement": "cognitive decline in the first 9 months", "setting": "[2]; 147 patients with mild/moderate AD, 16 mg/day", "result": 2.5, "unit": "unit"}, {"measurement": "cognitive decline over the following 9 months", "setting": "[2]; 147 patients with mild/moderate AD, 16 mg/day, months 9 to 18", "result": "no further decline"}, {"measurement": "rate of progression of brain atrophy", "setting": "[2]; MCI participants, HMTM 16 mg/day, versus ADNI MCI subjects (p<0.0001)", "result": "significantly less than in ADNI MCI subjects"}, {"measurement": "mean change on the instrumental activities of daily living subscale of ADCS-ADL", "setting": "[2]; MCI patients, 16 mg/day, at 6, 12 and 18 months", "result": "remained above the pre-treatment baseline"}, {"measurement": "reduction in functional decline relative to published meta-analysis of placebo decline data", "setting": "[2]; mild/moderate AD, 16 mg/day, ADCS-ADL", "result": "about 75%"}, {"measurement": "functional decline on the ADCS-ADL scale", "setting": "[2]; mild/moderate AD, 16 mg/day, at 12 months", "result": "−2", "unit": "units"}, {"measurement": "functional decline on the ADCS-ADL scale", "setting": "[2]; mild/moderate AD, 16 mg/day, at 18 months", "result": "−3", "unit": "units"}, {"measurement": "treatment effects on cognitive and functional decline versus placebo decline data of anti-amyloid trials", "setting": "[2]; over 18 months", "result": "about three-fold larger"}, {"measurement": "MT uptake into red cells, fold higher compared with MTC", "setting": "[3]", "result": "approximately 20 fold"}, {"measurement": "estimated treatment effect on ADCS-ADL23 (mean±standard error)", "setting": "[4]; completed hydromethylthionine mesylate studies", "result": "5.0±1.6", "unit": "units"}, {"measurement": "estimated treatment effect on ADAS-Cog11 (mean±standard error)", "setting": "[4]; pooled completed Phase 3 studies", "result": "−5.2±1.3", "unit": "units"}, {"measurement": "concentration at 1 h", "setting": "[5]; 8 mg/day, 8 mg/day LMTM arm, sub-group BLLOQ (set to zero), steady state 1 h post-dose, read-out: Mean HMT conc", "result": 0, "unit": "ng/mL"}, {"measurement": "concentration at 1 h", "setting": "[5]; 8 mg/day, 8 mg/day LMTM arm, sub-group high, steady state 1 h post-dose, read-out: Mean HMT conc", "result": 0.26, "unit": "ng/mL"}, {"measurement": "concentration at 1 h", "setting": "[5]; 8 mg/day, 8 mg/day LMTM arm, sub-group mid, steady state 1 h post-dose, read-out: Mean HMT conc", "result": 0.05, "unit": "ng/mL"}, {"measurement": "concentration at 1 h", "setting": "[5]; 16 mg/day, 16 mg LMTM/day group, week 4, 1h post dose, read-out: overall mean plasma concentration", "result": 0.5, "unit": "ng/mL"}, {"measurement": "concentration at 1 h", "setting": "[5]; 16 mg/day, 16 mg/day LMTM arm, sub-group BLLOQ (set to zero), steady state 1 h post-dose, read-out: Mean HMT conc", "result": 0, "unit": "ng/mL"}, {"measurement": "concentration at 1 h", "setting": "[5]; 16 mg/day, 16 mg/day LMTM arm, sub-group high, steady state 1 h post-dose, read-out: Mean HMT conc", "result": 0.5, "unit": "ng/mL"}, {"measurement": "concentration at 1 h", "setting": "[5]; 16 mg/day, 16 mg/day LMTM arm, sub-group mid, steady state 1 h post-dose, read-out: Mean HMT conc", "result": 0.04, "unit": "ng/mL"}, {"measurement": "concentration at 1 h", "setting": "[5]; 16 mg/day, 16 mg/day LMTM arm, sub-group ultralow, steady state 1 h post-dose, read-out: Mean HMT conc", "result": 0.02, "unit": "ng/mL"}]}, {"smiles": "CN(C)c1ccc2nc3ccc(N(C)C)cc3[s+]c2c1", "note": "[MTC, methylthioninium chloride]", "values": [{"measurement": "treatment effect on ADAS-cog compared to expected decline", "setting": "[2]; control group (4 mg MTC twice weekly), high plasma HMT group, 12 months", "result": "-4.73±2.01"}, {"measurement": "ADAS-cog decline", "setting": "[2]; control group (4 mg MTC twice weekly), ultra-low plasma HMT cases, 12 months", "result": "3.75±0.79"}, {"measurement": "AD patients with plasma levels above 0.10 ng/ml (Cmax)", "setting": "[6]", "result": 89, "unit": "%"}]}, {"smiles": "CN(C)c1ccc2c(c1)Sc1cc(N(C)C)ccc1N2", "note": "[HMT, N3,N3,N7,N7-tetramethyl-10H-phenothiazine-3,7-diamine]", "values": [{"measurement": "concentration at 1 h", "setting": "[5]; all dosing arms pooled, steady-state plasma, 1 h post-dose, read-out: Mean value HMT conc", "result": 0.2, "unit": "ng/mL"}, {"measurement": "concentration at 1 h", "setting": "[5]; all dosing arms pooled, sub-group BLLOQ (values set to zero), 1 h post-dose, read-out: Mean value HMT conc", "result": 0, "unit": "ng/mL"}, {"measurement": "concentration at 1 h", "setting": "[5]; all dosing arms pooled, sub-group high, 1 h post-dose, read-out: Mean value HMT conc", "result": 0.41, "unit": "ng/mL"}, {"measurement": "concentration at 1 h", "setting": "[5]; all dosing arms pooled, sub-group mid, 1 h post-dose, read-out: Mean value HMT conc", "result": 0.04, "unit": "ng/mL"}, {"measurement": "concentration at 1 h", "setting": "[5]; all dosing arms pooled, sub-group ultralow, 1 h post-dose, read-out: Mean value HMT conc", "result": 0.01, "unit": "ng/mL"}]}]}
